As a reminder, the Ki is a measure of affinity in units of concentration, obtained from inhibition or displacement.

Structures are written as SMILES.

The text below walks through data of ChEMBL document CHEMBL5727027, “Compounds useful as CCR9 modulators” (2018).

This assay addresses T1, C-C chemokine receptor type 9 (Homo sapiens, UniProt P51686).
T1 sequence (P51686 whole entry): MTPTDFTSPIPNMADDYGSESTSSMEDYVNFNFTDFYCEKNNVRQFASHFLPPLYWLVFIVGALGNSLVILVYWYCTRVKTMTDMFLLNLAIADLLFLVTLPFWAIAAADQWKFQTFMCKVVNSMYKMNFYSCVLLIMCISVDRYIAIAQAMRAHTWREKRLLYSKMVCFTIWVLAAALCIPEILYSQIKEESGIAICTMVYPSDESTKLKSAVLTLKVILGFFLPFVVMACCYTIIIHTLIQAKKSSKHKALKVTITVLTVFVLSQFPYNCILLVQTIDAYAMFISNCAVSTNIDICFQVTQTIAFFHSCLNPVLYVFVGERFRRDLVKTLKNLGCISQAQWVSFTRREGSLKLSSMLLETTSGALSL
The experiment in a line: FLIPR Assay: A calcium flux assay was used to determine the ability of the compounds to interfere with the binding between CCR9 and its chemokine ligand (TECK) in Chem1-hCCR9 overexpressing cells. hCCR9 overexpressing cells were seeded (25,000 cells/well) into black Poly-D-Lysine coated clear bottom 96-well plates (BD Biosciences, Cat #356640) and incubated overnight at 37° C./5% CO2 in a humidified incubator. Media was aspirated and cells washed twice with 100 μL assay buffer (1×HBSS, 20 mM HEPES) containing 2.5 mM Probenecid. A 0.3× Fluo-4 NW calcium dye was prepared in assay buffer containing 5 mM Probenecid and stored in the dark. Each well was loaded with 100 μL of 0.3× Fluo-4 NW calcium dye and incubated at 37° C./5% CO2 for 60 minutes and then at room temperature for 30 minutes. A half-log serially diluted concentration response curve was prepared at a 3× final assay concentration for each compound (10 μM-0.1 nM final assay concentration) and 50 μL of the compound then transferred to the cells (150 μL final volume) for 60 minutes prior to stimulation (30 minutes at 37° C./5% CO2 and 30 minutes at room temperature). TECK was diluted to 4× its EC80 in assay buffer (containing 0.1% [w/v] bovine serum albumin [BSA]) and 50 μL dispensed through the fluorometric imaging plate reader (FLIPR) instrument to stimulate the cells (200 μL final volume). […]. Type of assay: cell-based. For orientation: A change in cytosolic calcium serves as a functional read-out for many receptors and channels.

For the molecule `CC(C)(C)c1ccc(S(=O)(=O)Nc2ccc(C#N)c3c2C(=O)N(Cc2ccc[n+]([O-])c2)C3=O)cc1`, the inhibition constant (Ki) is 84 nM.
